Reference: patent US6100275A, “8-azabicyclo[3.2.1.]oct-2-ene derivatives, their preparation and use” (Neurosearch A/S, priority 1995, dated 2000)

Assays:
[1] = molecular target: T1, 3H-5-hydroxytryptamine (5-HT, serotonin) uptake in cortical synaptosomes (Rattus norvegicus, UniProt P31652); assay: In vitro inhibition of 3H-5-hydroxytryptamine (3H-5-HT, serotonin) uptake in cortical synaptosomes; assay type: biochemical, rat (male Wistar)
T1 construct: Cerebral cortices from male Wistar rats (150-200 g); from tissue; host or cells: cerebral cortex of male Wistar rats, crude synaptosomal P2 fraction
T1 sequence (P31652 whole entry): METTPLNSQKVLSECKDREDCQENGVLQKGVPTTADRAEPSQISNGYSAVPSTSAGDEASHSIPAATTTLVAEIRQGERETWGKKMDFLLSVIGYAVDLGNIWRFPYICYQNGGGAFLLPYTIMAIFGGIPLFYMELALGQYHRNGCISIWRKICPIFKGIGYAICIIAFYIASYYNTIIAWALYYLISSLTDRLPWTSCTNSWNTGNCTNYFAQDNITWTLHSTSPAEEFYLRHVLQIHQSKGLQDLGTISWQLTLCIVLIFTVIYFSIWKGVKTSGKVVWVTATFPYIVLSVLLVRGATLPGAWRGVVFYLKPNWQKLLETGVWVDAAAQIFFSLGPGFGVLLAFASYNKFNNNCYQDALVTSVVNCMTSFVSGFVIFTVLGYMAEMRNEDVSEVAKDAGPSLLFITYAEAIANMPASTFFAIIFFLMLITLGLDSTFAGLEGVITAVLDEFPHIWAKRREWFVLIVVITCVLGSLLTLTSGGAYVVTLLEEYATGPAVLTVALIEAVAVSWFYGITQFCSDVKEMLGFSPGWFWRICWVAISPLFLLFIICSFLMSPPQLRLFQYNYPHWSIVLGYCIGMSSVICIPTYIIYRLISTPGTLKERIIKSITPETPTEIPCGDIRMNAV
Excerpt: (§1) Specific neurotransmitter transporters/uptake sites on nerve terminals presumably function to terminate neuronal signaling by removing the neurotransmitters dopamine, noradrenaline and serotonin, respectively, from the synaptic cleft. The activity of the transporter integral proteins can be measured in vitro by synaptosomal uptake of ^3 H-dopamine, ^3 H-noradrenaline and ^3 H-serotonine, respectively.
In vitro Inhibition of ^3 H-5-hydroxytryptamine (^3 H-5-HT, serotonin) Uptake in Cortical Synaptosomes
(§2) Tissue preparation: Preparations are performed at 0-4° C. unless otherwise indicated. Cerebral cortices from male Wistar rats (150-200 g) are homogenized for 5-10 sec in 100 volumes of ice-cold 0.32M sucrose containing 1 mM pargyline using an Ultra-Turrax homogenizer. Monoamine oxidase activity will be inhibited in the presence of pargyline. The homogenate is centrifuged at 1000×g for 10 min. […]
(§3) Assay: Aliquots of 4.0 ml tissue suspension are added to 100 μl of test solution and 100 μl of ^3 H-5-HT (1 nM, final concentration), mixed and incubated for 30 min at 37° C. Non-specific uptake is determined using citalopram (1 μM, final concentration). […] The amount of radioactivity on the filters is determined by conventional liquid scintillation counting. Specific uptake is calculated as the difference between total uptake and non-specific uptake. […]

[2] = molecular target: T2, 3H-dopamine (DA) uptake in striatal synaptosomes (Rattus norvegicus, UniProt P23977); assay: In vitro inhibition of 3H-dopamine (3H-DA) uptake in striatal synaptosomes; assay type: biochemical, rat (male Wistar)
T2 construct: Corpi striati from male Wistar rats (150-200 g); from tissue; host or cells: corpus striatum of male Wistar rats, crude synaptosomal P2 fraction
T2 sequence (P23977 whole entry): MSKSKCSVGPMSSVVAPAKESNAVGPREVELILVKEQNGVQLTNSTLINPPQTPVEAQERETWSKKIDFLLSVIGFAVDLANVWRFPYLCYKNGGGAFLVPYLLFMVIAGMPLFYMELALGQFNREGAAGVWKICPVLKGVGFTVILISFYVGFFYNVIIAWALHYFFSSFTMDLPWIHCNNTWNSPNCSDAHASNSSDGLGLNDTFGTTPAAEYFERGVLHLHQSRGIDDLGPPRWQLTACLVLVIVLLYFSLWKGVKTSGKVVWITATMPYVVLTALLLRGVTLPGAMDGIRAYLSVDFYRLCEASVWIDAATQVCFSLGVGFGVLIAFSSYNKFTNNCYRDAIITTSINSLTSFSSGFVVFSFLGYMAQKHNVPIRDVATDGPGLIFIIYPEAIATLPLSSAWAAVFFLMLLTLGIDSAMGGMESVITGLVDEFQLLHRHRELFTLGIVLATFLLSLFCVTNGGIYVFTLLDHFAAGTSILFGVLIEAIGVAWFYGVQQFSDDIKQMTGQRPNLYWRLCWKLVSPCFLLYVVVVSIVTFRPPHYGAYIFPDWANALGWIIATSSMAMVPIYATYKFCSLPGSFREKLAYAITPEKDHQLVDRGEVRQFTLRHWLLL
Excerpt: as §1
In vitro Inhibition of ^3 H-dopamine (^3 H-DA) Uptake in Striatal Synaptosomes
as §2, with “preparations:” for “preparation:”, “Corpi striati” for “Cerebral cortices”
as §3, with “H-DA” for “H-5-HT”, “25” for “30”, “benztropine (10” for “citalopram (1”

[3] = molecular target: T3, 3H-noradrenaline (NA) uptake in hippocampal synaptosomes (Rattus norvegicus, UniProt Q63380); assay: In vitro inhibition of 3H-noradrenaline (3H-NA) uptake in hippocampal synaptosomes; assay type: biochemical, rat (male Wistar)
T3 construct: Hippocampi from male Wistar rats (150-200 g); from tissue; host or cells: hippocampus of male Wistar rats, crude synaptosomal P2 fraction
T3 sequence (Q63380 1-617): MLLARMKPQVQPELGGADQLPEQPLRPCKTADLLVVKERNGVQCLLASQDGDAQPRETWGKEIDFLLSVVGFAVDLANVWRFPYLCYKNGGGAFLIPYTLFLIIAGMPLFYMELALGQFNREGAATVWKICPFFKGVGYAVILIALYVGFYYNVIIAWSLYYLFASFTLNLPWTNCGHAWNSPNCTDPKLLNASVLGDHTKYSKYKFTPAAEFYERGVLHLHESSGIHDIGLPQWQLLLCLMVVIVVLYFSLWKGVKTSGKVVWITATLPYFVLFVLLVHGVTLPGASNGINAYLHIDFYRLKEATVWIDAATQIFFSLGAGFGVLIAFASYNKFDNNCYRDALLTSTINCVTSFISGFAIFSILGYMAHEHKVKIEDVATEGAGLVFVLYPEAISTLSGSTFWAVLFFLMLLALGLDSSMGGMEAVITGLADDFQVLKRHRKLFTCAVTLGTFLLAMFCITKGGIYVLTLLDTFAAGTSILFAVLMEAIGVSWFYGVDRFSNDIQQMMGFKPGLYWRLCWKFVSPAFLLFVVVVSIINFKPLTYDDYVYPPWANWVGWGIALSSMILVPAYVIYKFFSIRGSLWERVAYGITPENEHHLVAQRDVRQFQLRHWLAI
Excerpt: as §1
In vitro Inhibition of ^3 H-noradrenaline (^3 H-NA) Uptake in Hippocampal Synaptosomes
as §2, with “Hippocampi” for “Cerebral cortices”
as §3, with “H-NA” for “H-5-HT”, “90” for “30”, “desipramine” for “citalopram”

[4] = tested on: mice (immobility time, tail suspension); assay: Tail suspension test for antidepressant activity (immobility time); assay type: in vivo, mouse (female NMRI); conditions: Mus musculus, 0.5 h, oral, 30 min before test, 6 min observation, graphical interpolation from at least 3 doses, read-out: ED50 (dose reducing the immobility to 100 sec)
Experimental: A decrease in the immobility time by mice suspended in their tail is seen after systemic administration of central stimulants and by antidepressants (Steru, L., Chermat, R., Thierry, B. & Simon, P. (1985) The tail suspension test: A new method for screening antidepressants in mice. Psychopharmacology 85:367-370.).
Female NMRI mice (20-25 g) habituated to the room (12 hours light/dark) for at least 16 hours and housed 25 per cage are used. The mice are suspended by the tail with adhesive tape to a rod 30 cm above the lab. bench 30 min after an oral administation of vehicle or drug. For the next 6 min the accumulated duration of immobility defined as no movements by the body or extremities (however head movements are not defined as movements) are noted. Six mice per dose are used.
Saline or vehicle treated mice have immobility time scores between 160-180 sec in average. An ED50 -value is calculated by graphical interpolation from at least 3 doses as the dose reducing the immobility to 100 sec.

## CN1C2C=C(c3ccc(Cl)c(Cl)c3)CC1CC2 (racemic) [(±)-3-(3,4-Dichlorophenyl)-8-methyl-8-azabicyclo[3.2.1]oct-2-ene]
[1]
  IC50: 4.7 nM
[2]
  IC50: 79 nM
[3]
  IC50: 26 nM
[4]
  ED50: 0.96 mg/kg
